Laboratory results published in US20160017326A1, “MICRORNAS AS FUNCTIONAL MEDIATORS AND BIOMARKERS OF BONE METASTASIS” (THE TRUSTEES OF PRINCETON UNIVERSITY, priority 2013, published 2016).

Legend:
Calcr 3'UTR = experiment: 3'UTR luciferase reporter assay, Calcr; assay type: cell-based, mouse; details: co-transfection in HeLa
Experimental: (§1) For NFκB reporter assays the pGL4.32 [luc2P/NF-κB-RE/Hygro] vector (Promega) was co-transfected with a Renilla-luciferase plasmid into cells. After 24 hours, cells were treated with 50 ng/ml RANKL, 50 ng/ml sICAM1, or 10 ng/ml TNFα for analysis at indicated timepoints. Wildtype and mutant 3′UTRs were PCR amplified from mouse genomic DNA. The 3′UTRs were cloned into the pMIR-REPORT vector (AMBION®) downstream of firefly luciferase. Mutations in miRNA target sites were generated using the QuikChange Multi site-directed mutagenesis kit (Stratagene). 5×10^4 HeLa cells were plated in 24-well plates 24 hours prior to transfection. 200 ng of reporter plasmid was co-transfected with the renilla-luciferase control plasmid and 10 pM pre-miRNA precursor or precursor control (AMBION®) using Lipofectamine 2000 (Invitrogen). Cells were lysed 24 hours after transfection and assayed for luciferase activity using the Glomax 96 Luminometer (Promega). Primer sequences for cloning or mutagenesis are listed below:
(§2) Reporter constructs were co-transfected with pre-miRs, as well as a Renilla luciferase plasmid for normalization.

[1] = Serum miRNA levels after injection of pre-miRNAs, qRT-PCR; assay type: in vivo, mice; details: qPCR of mouse serum
Experimental: RNA from cell lines was isolated using a miRVana miRNA isolation kit (AMBION®). Total RNA from mouse bleeds was isolated using Trizol LS (Invitrogen) according to manufacturers instructions. For microarrays, 5 μg total RNA was labeled using the NCode Rapid Labeling System (Invitrogen) and hybridized to custom arrays. The arrays were analyzed using the G2565BA scanner (Agilent Technologies), and median fluorescent intensities were obtained after subtracting background. To identify differential miRNA expression between samples, the median fluorescent intensities were normalized using the median expression values within the array and log 2 values analyzed.
mRNA was analyzed by synthesizing cDNA using the Superscript III First-strand kit (Invitrogen) and qPCR performed using the Power SYBR® green PCR master mix (Applied Biosystems). Mature miRNAs were reverse transcribed using the TaqMan Reverse Transcription Kit (Applied Biosystems) followed by real-time PCR using TaqMan miRNA assays (Applied Biosystems). All analysis was performed using an ABI 7900HT PCR machine according to the manufacturer's instructions. A standard curve was created from serial dilutions from cDNA for each gene of interest. Values were normalized by the expression of GAPDH or RNU6B in each sample.
FIG. 8C illustrates qRT-PCR miRNA expression levels from serum samples of mice taken at indicated times after injection with miRNAs. The results were statistically significant with p<0.01 (**). […] In contrast, miR-141 and miR-219 took substantially longer to clear from the serum, maintaining ˜20% of the normalized expression at 24 hours.

Mitf 3'UTR = experiment: 3'UTR luciferase reporter assay, Mitf; assay type: cell-based, mouse; details: co-transfection in HeLa, relative to negative control miRNA
Experimental: as §1, §2

[2] = test system: Pu.1, Nfatc1, Ctsk in RAW264.7 cells; experiment: Western blot of Pu.1, Nfatc1, Ctsk after miRNA transfection and RANKL; assay type: cell-based, murine; details: transient miRNA transfection, 50 ng/ml RANKL
Experimental: SDS lysis buffer (0.05 mM Tris-HCl, 50 mM BME, 2% SDS, 0.1% Bromophenol blue, 10% glycerol) was used to collect protein from cells. Samples were sonicated and heat denatured protein was equally loaded, separated on a 10% SDS-page gel, transferred onto a pure nitrocellulose membrane (BioRad), and blocked with 5% milk. Primary antibodies for immunoblotting included: anti-IκBα (1:1000 dilution, Cell signaling, 44D4), anti-p-p65 (1:500 dilution, Santa Cruz Biotechnology), anti-Pu.1 (5 μg/ml, Abcam, AB88082), anti-Nfatc1 (1 μg/ml, Abcam, AB25916), anti-Ctsk (4 μg/ml, Abcam, AB19027), anti-β-actin (1:5000 dilution, ABcam), for loading control. Membranes were incubated with horseradish peroxidase (HRP)-conjugated anti-mouse secondary antibody (1:2000 dilution, GE Healthcare) or anti-rabbit secondary antibody (1:2000 dilution, GE Healthcare) for 1 h and chemiluminescence signals were detected by ECL substrate (GE Healthcare).
To better examine the capacity of the miRNAs to inhibit osteoclast differentiation, osteoclast markers were examined in RAW264.7 cells transfected with the miRNA of interest, followed by RANKL treatment. FIG. 5F illustrates Western blot analysis for Pu.1, Nfatc1, or Ctsk in RAW264.7 cells after transient transfection with indicated miRNA and treatment with 50 ng/ml RANKL. Data in the figure represent average ±SEM; p values were based on Student's t-test.

RAW264.7 cells = experiment: In vitro bone resorption assay on bovine bone slices; assay type: cell-based, murine; details: miRNA transfection, 50 ng/ml RANKL, relative to control cells
Experimental: 5×10^4 pre-osteoclast cells were seeded onto 1 mm thick slices of bovine bone cut using a diamond saw and sterilized by immersion in 70% ethanol. Cells were cultured for 10 days as indicated in 6-well plates, transferred to fresh plates and washed to remove osteoclasts. Bone slices were stained in a solution of 1% toludine blue in 0.5% sodium tetraborate, destained in PBS plus 1% Triton X-100, and imaged by light microscopy.
In vitro bone resorption assay was then used to measure the effect of ectopic miRNA expression on osteoclast activity. […] Referring to this figures, scale bar represents 200 μm. Results were statistically significant with p<0.01 (**) and p<0.001 (***). […] Since these miRNAs may inhibit osteoclast differentiation or function by targeting different mRNAs, the repression of osteoclast differentiation was further examined using combinations of inhibitory miRNAs. Given that transient transfection with 10 pM of miRNA precursors was sufficient to inhibit up to approximately 90% of osteoclast differentiation, RAW264.7 cells were treated with a combination of miRNAs at a reduced concentration of 1 pM total precursors.

Traf6 3'UTR = experiment: 3'UTR luciferase reporter assay, Traf6; assay type: cell-based, mouse; details: co-transfection in HeLa
Experimental: as §1, §2

Mmp14 3'UTR = experiment: 3'UTR luciferase reporter assay, Mmp14; assay type: cell-based, mouse; details: co-transfection in HeLa
Experimental: as §1, §2

**Q.** Which “luciferase reporter activity, Calcr 3'UTR” value (Calcr 3'UTR) does the source give for “miR-141: miRNA, SEQ ID NO: 69; delivered as pre-miRNA precursor; targets Mitf and Calcr (UAACACUGUCUGGUAACGAUGU; delivered as pre-miRNA precursor, chemistry not given here; listed as Homo sapiens)” here?
**A.** repressed

**Q.** And the “normalized serum expression remaining at 24 hours” value [1]?
**A.** ~20%

**Q.** And the “luciferase reporter activity, Mitf 3'UTR” value (Mitf 3'UTR)?
**A.** repress expression of Mitf

**Q.** What about the “reduction of Mitf expression (3'UTR reporter)” value (Mitf 3'UTR) of the same substance?
**A.** ~50%

**Q.** And the “expression of Pu.1, Nfatc1, Ctsk (Western blot)” value [2]?
**A.** inhibited early osteoclast differentiation, with minimal expression of Nfatc1

**Q.** What about the “bone resorption (osteoclast activity)” value (RAW264.7 cells) of the same substance?
**A.** dramatically limited osteoclast activity

**Q.** For “miR-190: miRNA, SEQ ID NO: 64; delivered as pre-miRNA precursor; targets Calcr (UGAUAUGUUUGAUAUAUUAGGU; delivered as pre-miRNA precursor, chemistry not given here; listed as Homo sapiens)”, which “luciferase reporter activity, Calcr 3'UTR” value (Calcr 3'UTR) is on record?
**A.** able to repress

**Q.** And the “serum miRNA level within 6 hours of injection” value [1]?
**A.** substantial decrease

**Q.** And the “clearance from serum within 24 hours” value [1]?
**A.** nearly full clearance

**Q.** And the “expression of Pu.1, Nfatc1, Ctsk (Western blot)” value [2]?
**A.** expressed Pu.1 and Nfatc1, but not Ctsk

**Q.** What about the “bone resorption (osteoclast activity)” value (RAW264.7 cells) of the same substance?
**A.** dramatically limited osteoclast activity

**Q.** What does the source list for “miR-219: miRNA, SEQ ID NO: 66; delivered as pre-miRNA precursor; targets Mitf and Traf6 (UGAUUGUCCAAACGCAAUUCU; delivered as pre-miRNA precursor, chemistry not given here; listed as Homo sapiens)”?
**A.** normalized serum expression remaining at 24 hours [1]: ~20%; luciferase reporter activity, Traf6 3'UTR (Traf6 3'UTR): repressed; luciferase reporter activity, Mitf 3'UTR (Mitf 3'UTR): repress expression of Mitf; reduction of Mitf expression (3'UTR reporter) (Mitf 3'UTR): ~20%; expression of Pu.1, Nfatc1, Ctsk (Western blot) [2]: inhibited early osteoclast differentiation, with minimal expression of Nfatc1; bone resorption (osteoclast activity) (RAW264.7 cells): dramatically limited osteoclast activity

**Q.** What does the source list for “miR-133a: miRNA, SEQ ID NO: 61; delivered as pre-miRNA precursor; targets Mitf and Mmp14 (UUUGGUCCCCUUCAACCAGCUA; delivered as pre-miRNA precursor, chemistry not given here; listed as Homo sapiens)”?
**A.** serum miRNA level within 6 hours of injection [1]: substantial decrease; clearance from serum within 24 hours [1]: nearly full clearance; luciferase reporter activity, Mitf 3'UTR (Mitf 3'UTR): repress expression of Mitf; luciferase reporter activity, Mmp14 3'UTR (Mmp14 3'UTR): repressed; expression of Pu.1, Nfatc1, Ctsk (Western blot) [2]: inhibited early osteoclast differentiation, with minimal expression of Nfatc1; bone resorption (osteoclast activity) (RAW264.7 cells): dramatically limited osteoclast activity
